Assay results taken from PubChem BioAssay (NCI).
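Assay format: 96-well plates, 48-hour exposure. The concentration for 50% growth inhibition is given as GI50. At the TGI there is no net growth.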

Legend:
Test in all cases: NCI tumour cell line growth inhibition, 48 h
CAKI-1 renal = test system: CAKI-1 renal
UACC-62 melanoma = test system: UACC-62 melanoma
786-0 renal = test system: 786-0 renal
RXF 393 renal = test system: RXF 393 renal
ACHN renal = test system: ACHN renal
NCI-H23 lung = test system: NCI-H23 lung
SF-295 CNS = test system: SF-295 CNS
KM12 colon = test system: KM12 colon
EKVX NSCLC = test system: EKVX NSCLC

Row | Structure (SMILES) | TGI (CAKI-1 renal) [µM] | TGI (UACC-62 melanoma) [µM] | TGI (786-0 renal) [µM] | TGI (RXF 393 renal) [µM] | TGI (ACHN renal) [µM] | TGI (NCI-H23 lung) [µM] | TGI (SF-295 CNS) [µM] | TGI (KM12 colon) [µM] | TGI (EKVX NSCLC) [µM] | GI50 (CAKI-1 renal) [µM] | GI50 (UACC-62 melanoma) [µM] | GI50 (786-0 renal) [µM] | GI50 (RXF 393 renal) [µM] | GI50 (ACHN renal) [µM] | GI50 (NCI-H23 lung) [µM] | GI50 (SF-295 CNS) [µM] | GI50 (KM12 colon) [µM] | GI50 (EKVX NSCLC) [µM]
1 | O=C(/C=C/c1ccc(OCCCCCCCCCCOc2ccc(/C=C/C(=O)c3ccc(Cl)cc3)cc2)cc1)c1ccc(Cl)cc1 | > 100 | > 100 | > 100 | > 100 | > 100 | > 100 | > 100 | > 100 | > 100 |  |  |  |  |  |  |  |  | 
2 | CCCCN(CC)C(=O)C(=O)C1C(=O)Nc2ccccc2S1=O (configuration not stated) | > 100 | > 100 | > 100 | > 100 | > 100 | > 100 |  | > 100 | > 100 |  |  |  |  |  |  |  |  | 
3 | N#C/C(=C\c1ccc(CP(=O)(O)O)cc1)C(N)=O | > 100 | > 100 | > 100 |  | > 100 | > 100 | > 100 | > 100 | > 100 |  |  |  |  |  |  |  |  | 
4 | COc1cc2c(cc1O)[C@H](C)C(c1ccc(Cl)cc1)O2 (some centres not stated) | 49.2 | 92.4 | 32 | 77.5 | 27.8 | 70.8 | 82.6 | 62.1 | 92.3 |  |  |  |  |  |  |  |  | 
5 | CCC(=O)Sc1ccccc1C(=O)Nc1ccc(Cl)cc1 | 38.4 | 24.3 | 41.8 | > 100 | 71.6 | 39.2 | 25.4 | 36.8 | 75.2 | 10.2 | 4.38 | 15 | 28.7 | 16.5 | 6.43 | 5.08 | 6.69 | 7.16
6 | COc1cc2c(-c3nc4cc(Cl)c(F)cc4s3)cc(=O)oc2c(C)c1OC | 0.78 | 2.69 | 2.21 | 3.08 | 2.81 |  | 2.34 |  |  | 0.307 | 1.3 | 1.02 | 1.55 | 1.36 |  | 1.01 |  | 
7 | O=c1/c(=C/c2cccc3ccccc23)sc2nc3ccccc3n12 | > 100 | > 100 | > 100 | > 100 | > 100 | > 100 | > 100 | > 100 | > 100 |  |  |  |  |  |  |  |  | 
8 | Nc1ccccc1C#C/C=C\C#Cc1ccc(F)cc1F | 14.7 | 32.5 | 28.7 | 43.2 | 32.2 | 32.2 | 24.8 | 19.6 | 57.8 | 3.13 | 14.6 | 14.7 | 18.4 | 16.6 | 13.3 | 7.12 | 4.17 | 19.4
9 | C=CC1CC12C(=O)C1OC2(C)C2C(=O)c3ccccc3C(=O)C12 (configuration not stated) | 58.6 | > 100 | > 100 | > 100 | > 100 | > 59.8 | 59.8 | > 80.8 | > 100 | 21.7 | 35.1 | > 52.5 | 35.2 | 57.3 | 39.4 | 23.6 | > 45.3 | > 100
10 | CC(C)C1CN1CC(O)Cn1ccnc1[N+](=O)[O-] (configuration not stated) | > 100 | > 100 | > 100 |  | > 100 | > 100 | > 100 | > 100 | > 100 |  |  |  |  |  |  |  |  | 
11 | CS(=O)(=O)NNS(=O)(=O)c1ccc(Br)cc1 | > 100 | > 100 | > 100 | > 100 | > 100 | > 100 |  |  | > 100 |  |  |  |  |  |  |  |  | 
12 | COc1ccc(CC(=O)c2cc(OC)c(OC)cc2C)cc1OC | > 100 | > 100 | > 100 |  | > 100 | > 100 | > 100 | > 100 | > 100 |  |  |  |  |  |  |  |  | 
13 | C=C1C(=O)O[C@@H]2C[C@]3(C)[C@@H](C[C@H]12)[C@](C)(O)CC[C@@H]3O | > 100 | > 100 | > 100 |  | > 100 | > 100 | > 100 | > 100 | > 100 |  |  |  |  |  |  |  |  | 
14 | O=CC1=CCCC2(C1)OCCO2 | > 100 | > 100 | > 100 | > 100 |  | > 100 | > 100 | > 100 | > 100 |  |  |  |  |  |  |  |  | 
15 | CCCCOC1CC2(c3ccc(OC)cc3)C(=O)c3ccccc3N2O1 (configuration not stated) | > 100 | > 10 | > 100 | 50 | > 10 |  | > 100 | > 100 | > 100 |  |  |  |  |  |  |  |  | 
16 | [Cu+2].[Cu+2].[O-]c1ccccc1C=Nc1ccccc1[O-].[O-]c1ccccc1C=Nc1ccccc1[O-] | 22.8 | 14 | 20.3 |  | 20.8 | 4.85 | 27.6 | 27 | 25.9 | 10.8 | 3.55 | 7.24 |  | 7.81 | 1.96 | 8.01 | 10 | 11.8
